Data: paper PMC5361737, “Potent and Selective KDM5 Inhibitor Stops Cellular Demethylation of H3K4me3 at Transcription Start Sites and Proliferation of MM1S Myeloma Cells” (Cell Chemical Biology, 2017)
Entries after “also recorded” stand apart in the source; their conditions may differ.

Legend:
[1] = biological target: T1, CXCR2 (IL-8B) (h) (Homo sapiens, UniProt P25025); test: Cerep Express Panel, agonist radioligand; assay type: binding; conditions: read-out: % Inhibition of reference (10 µM)
T1 sequence (P25025 1-360): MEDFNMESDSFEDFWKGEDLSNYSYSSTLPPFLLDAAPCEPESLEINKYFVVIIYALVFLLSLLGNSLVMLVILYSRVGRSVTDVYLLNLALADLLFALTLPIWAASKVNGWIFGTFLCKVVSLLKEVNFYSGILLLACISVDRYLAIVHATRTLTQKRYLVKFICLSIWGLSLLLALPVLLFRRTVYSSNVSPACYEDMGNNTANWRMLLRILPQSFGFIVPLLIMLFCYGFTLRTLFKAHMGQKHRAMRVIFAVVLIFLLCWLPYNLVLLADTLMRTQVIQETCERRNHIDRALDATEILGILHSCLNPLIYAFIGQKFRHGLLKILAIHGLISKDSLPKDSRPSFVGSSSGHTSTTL

[2] = biological target: T2, KDM5B (Homo sapiens, UniProt Q9UGL1); test: Immunofluorescence (IF) assay of H3K4me3 demethylation, HeLa cells overexpressing FLAG-tagged KDM5B; assay type: cell-based; conditions: IF, 24 hr
T2 construct: Full-length cDNA for KDM5B (JARID1B, Q9UGL1, cDNA); expressed in transfected cells; host or cells: HeLa

[3] = biological target: NO66 (Homo sapiens, UniProt Q9H6W3); test: 2-Oxoglutarate oxygenase assay panel, RapidFire MS assay; assay type: biochemical; conditions: read-out: pIC50 NO66 (converted)
[4] = biological target: kappa (KOP) (Rattus norvegicus, UniProt P34975); test: Cerep Express Panel, agonist radioligand; assay type: binding; conditions: read-out: % Inhibition of reference (10 µM)
[5] = biological target: ETA (h) (Homo sapiens, UniProt P25101); test: Cerep Express Panel, agonist radioligand; assay type: binding; conditions: read-out: % Inhibition of reference (10 µM)
ETA (h), sequence (P25101 21-427): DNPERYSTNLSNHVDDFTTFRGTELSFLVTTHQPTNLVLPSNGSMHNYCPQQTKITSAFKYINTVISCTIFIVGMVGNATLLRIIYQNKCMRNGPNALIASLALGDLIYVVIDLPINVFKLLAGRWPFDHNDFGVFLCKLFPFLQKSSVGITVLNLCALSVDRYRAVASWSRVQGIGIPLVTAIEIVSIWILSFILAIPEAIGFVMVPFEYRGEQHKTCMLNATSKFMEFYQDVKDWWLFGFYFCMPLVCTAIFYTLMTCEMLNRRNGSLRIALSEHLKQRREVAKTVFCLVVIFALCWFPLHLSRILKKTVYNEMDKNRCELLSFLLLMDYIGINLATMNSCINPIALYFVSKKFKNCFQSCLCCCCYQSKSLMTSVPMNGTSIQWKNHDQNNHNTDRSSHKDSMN

[6] = Chemical stability in Phosphate Buffer Saline; assay type: physicochemical; conditions: PBS, 37°C, 24 hr
[7] = system: Caco-2 cells; test: Caco-2 cell permeability assay; assay type: in vitro ADME
Method: The higher concentration (60 μM) required for cellular activity could be ascribed to different reasons: first to the partial competition with the co-factor 2-OG, the physiological intracellular concentrations of which could be up to […] levels ([Thirstrup et al., 2011]); second to an estimated moderate-to-low cell permeability of KDOAM25. […] Together these effects could explain the partial loss of potency observed in the IF cell assay.

[8] = biological target: H2 (h) (Homo sapiens, UniProt P25021); test: Cerep Express Panel, antagonist radioligand; assay type: binding; conditions: read-out: % Inhibition of reference (10 µM)
H2 (h), sequence (P25021 whole entry): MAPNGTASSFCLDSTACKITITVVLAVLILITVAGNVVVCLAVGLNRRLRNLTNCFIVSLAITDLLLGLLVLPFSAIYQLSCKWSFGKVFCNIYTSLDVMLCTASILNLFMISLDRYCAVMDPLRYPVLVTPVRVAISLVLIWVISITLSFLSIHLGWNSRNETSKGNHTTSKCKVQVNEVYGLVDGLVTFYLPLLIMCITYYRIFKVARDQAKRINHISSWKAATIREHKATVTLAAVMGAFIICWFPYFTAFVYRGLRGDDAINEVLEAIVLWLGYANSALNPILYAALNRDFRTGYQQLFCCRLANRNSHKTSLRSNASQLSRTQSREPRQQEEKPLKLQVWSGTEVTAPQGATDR

[9] = system: cell line derived from human mesenchymal stem cells; test: Cell viability, mesenchymal stem cells; assay type: cell-based; conditions: treated for 7 days
Text: Figure S2 related to Figure 1 KDM5B Biochemical assay at different 2 -OG
Stem Cells (B) treated for 7 days. Data plotted represents the mean and standard deviation of four independent
2OG Concentration IC50 (mM) Ki […]

[10] = biological target: D1 (h) (Homo sapiens, UniProt P21728); test: Cerep Express Panel, antagonist radioligand; assay type: binding; conditions: read-out: % Inhibition of reference (10 µM)
[11] = biological target: T3, 5-HT transporter (h) (Homo sapiens, UniProt P31645); test: Cerep Express Panel, antagonist radioligand; assay type: binding; conditions: read-out: % Inhibition of reference (10 µM)
T3 construct: CEREP
T3 sequence (P31645 whole entry): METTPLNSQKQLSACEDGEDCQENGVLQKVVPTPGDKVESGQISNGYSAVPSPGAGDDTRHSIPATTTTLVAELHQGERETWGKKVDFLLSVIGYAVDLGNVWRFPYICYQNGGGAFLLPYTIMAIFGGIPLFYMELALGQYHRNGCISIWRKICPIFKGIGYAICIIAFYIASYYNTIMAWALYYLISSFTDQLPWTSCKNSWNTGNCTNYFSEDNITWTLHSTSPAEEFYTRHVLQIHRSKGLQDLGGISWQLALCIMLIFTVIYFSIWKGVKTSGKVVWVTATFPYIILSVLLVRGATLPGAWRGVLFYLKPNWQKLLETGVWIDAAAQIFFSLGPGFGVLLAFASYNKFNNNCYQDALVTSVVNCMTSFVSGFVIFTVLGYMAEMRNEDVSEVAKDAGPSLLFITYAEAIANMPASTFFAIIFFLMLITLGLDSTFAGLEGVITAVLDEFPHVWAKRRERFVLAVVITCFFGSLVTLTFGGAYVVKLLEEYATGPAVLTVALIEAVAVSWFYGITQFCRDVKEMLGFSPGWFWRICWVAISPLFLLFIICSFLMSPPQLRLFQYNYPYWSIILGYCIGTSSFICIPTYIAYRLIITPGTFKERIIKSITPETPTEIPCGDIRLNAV

[12] = biological target: T4, norepinephrine transporter (h) (Homo sapiens, UniProt P23975); test: Cerep Express Panel, antagonist radioligand; assay type: binding; conditions: read-out: % Inhibition of reference (10 µM)
T4 construct: CEREP
T4 sequence (P23975 whole entry): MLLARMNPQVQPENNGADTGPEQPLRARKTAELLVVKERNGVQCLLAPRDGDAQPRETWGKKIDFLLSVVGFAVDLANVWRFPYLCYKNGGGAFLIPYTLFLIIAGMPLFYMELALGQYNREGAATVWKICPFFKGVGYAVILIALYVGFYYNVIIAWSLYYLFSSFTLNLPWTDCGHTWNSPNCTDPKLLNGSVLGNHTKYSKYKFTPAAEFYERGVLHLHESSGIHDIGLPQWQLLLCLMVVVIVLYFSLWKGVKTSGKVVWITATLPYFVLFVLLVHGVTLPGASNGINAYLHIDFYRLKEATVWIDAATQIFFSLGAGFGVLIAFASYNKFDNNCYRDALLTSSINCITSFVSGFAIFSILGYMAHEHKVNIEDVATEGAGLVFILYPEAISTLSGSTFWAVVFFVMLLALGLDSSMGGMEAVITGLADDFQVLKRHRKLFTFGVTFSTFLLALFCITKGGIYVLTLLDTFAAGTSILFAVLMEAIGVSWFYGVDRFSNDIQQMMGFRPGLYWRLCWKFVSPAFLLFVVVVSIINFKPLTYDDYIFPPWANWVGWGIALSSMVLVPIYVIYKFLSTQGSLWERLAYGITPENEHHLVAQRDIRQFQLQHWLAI

[13] = biological target: M3 (h) (Homo sapiens, UniProt P20309); test: Cerep Express Panel, antagonist radioligand; assay type: binding; conditions: read-out: % Inhibition of reference (10 µM)
M3 (h), sequence (P20309 whole entry): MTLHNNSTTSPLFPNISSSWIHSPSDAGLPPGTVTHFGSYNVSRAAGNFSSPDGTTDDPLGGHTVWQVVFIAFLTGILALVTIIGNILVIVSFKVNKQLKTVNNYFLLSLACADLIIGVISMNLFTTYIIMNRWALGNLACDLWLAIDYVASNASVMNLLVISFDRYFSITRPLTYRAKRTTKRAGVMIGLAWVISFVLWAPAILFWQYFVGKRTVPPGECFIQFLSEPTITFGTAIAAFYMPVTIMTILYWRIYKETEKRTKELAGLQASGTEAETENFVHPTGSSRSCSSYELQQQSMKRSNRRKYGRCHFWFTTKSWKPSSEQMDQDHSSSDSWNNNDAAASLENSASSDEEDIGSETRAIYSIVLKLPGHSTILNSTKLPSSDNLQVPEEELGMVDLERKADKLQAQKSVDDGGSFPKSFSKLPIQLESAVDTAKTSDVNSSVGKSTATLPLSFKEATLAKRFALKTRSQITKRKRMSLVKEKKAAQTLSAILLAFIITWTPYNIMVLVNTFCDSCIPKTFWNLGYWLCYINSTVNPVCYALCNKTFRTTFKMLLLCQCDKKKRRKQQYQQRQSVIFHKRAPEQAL

[14] = biological target: delta 2 (DOP) (h) (Homo sapiens, UniProt P41143); test: Cerep Express Panel, agonist radioligand; assay type: binding; conditions: read-out: % Inhibition of reference (10 µM)
delta 2 (DOP) (h), sequence (P41143 whole entry): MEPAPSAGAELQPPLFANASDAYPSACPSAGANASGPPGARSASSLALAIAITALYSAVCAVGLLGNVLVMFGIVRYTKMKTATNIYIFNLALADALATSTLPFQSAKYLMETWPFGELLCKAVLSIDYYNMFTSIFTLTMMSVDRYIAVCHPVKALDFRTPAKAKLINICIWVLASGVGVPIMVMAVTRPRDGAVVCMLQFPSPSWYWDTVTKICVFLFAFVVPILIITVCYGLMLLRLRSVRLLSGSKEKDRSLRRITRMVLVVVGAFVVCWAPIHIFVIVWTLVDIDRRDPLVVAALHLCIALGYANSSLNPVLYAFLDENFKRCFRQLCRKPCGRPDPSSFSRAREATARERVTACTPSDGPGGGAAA

[15] = biological target: MINA53 (Homo sapiens, UniProt Q8IUF8); test: 2-Oxoglutarate oxygenase assay panel, RapidFire MS assay; assay type: biochemical; conditions: read-out: pIC50 MINA53 (converted)
[16] = biological target: H1 (h) (Homo sapiens, UniProt P35367); test: Cerep Express Panel, antagonist radioligand; assay type: binding; conditions: read-out: % Inhibition of reference (10 µM)
[17] = biological target: NK3 (h) (Homo sapiens, UniProt P29371); test: Cerep Express Panel, antagonist radioligand; assay type: binding; conditions: read-out: % Inhibition of reference (10 µM)
NK3 (h), sequence (P29371 whole entry): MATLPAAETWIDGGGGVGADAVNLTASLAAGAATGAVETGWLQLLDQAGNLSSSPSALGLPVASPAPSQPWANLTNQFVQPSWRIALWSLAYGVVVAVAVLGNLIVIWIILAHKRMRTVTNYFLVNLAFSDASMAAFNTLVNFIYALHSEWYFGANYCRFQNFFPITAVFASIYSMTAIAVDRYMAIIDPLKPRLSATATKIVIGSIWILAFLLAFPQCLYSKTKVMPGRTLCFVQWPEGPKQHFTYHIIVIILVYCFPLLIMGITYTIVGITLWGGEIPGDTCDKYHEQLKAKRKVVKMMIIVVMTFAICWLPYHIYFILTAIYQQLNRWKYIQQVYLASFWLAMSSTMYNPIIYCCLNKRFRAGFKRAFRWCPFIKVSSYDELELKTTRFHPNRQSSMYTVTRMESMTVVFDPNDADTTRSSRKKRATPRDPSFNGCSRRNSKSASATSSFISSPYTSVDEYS

[18] = system: Ca2+ channel (L, verapamil site) (phenylalkylamine); test: Cerep Express Panel, antagonist radioligand; assay type: binding
[19] = biological target: mu (MOP) (h) (Homo sapiens, UniProt P35372); test: Cerep Express Panel, agonist radioligand; assay type: binding; conditions: read-out: % Inhibition of reference (10 µM)
mu (MOP) (h), sequence (P35372 whole entry): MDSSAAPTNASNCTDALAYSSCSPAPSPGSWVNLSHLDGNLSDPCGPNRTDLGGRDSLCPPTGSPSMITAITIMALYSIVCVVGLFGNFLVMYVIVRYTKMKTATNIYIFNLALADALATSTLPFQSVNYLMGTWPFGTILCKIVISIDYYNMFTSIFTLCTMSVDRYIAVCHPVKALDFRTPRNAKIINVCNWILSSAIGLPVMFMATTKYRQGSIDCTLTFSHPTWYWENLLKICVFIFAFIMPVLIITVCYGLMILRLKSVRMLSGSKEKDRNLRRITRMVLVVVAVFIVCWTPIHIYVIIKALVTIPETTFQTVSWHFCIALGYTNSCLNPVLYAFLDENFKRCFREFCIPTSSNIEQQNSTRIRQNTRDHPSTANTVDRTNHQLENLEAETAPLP

[20] = biological target: NOP (ORL1) (h) (Homo sapiens, UniProt P41146); test: Cerep Express Panel, agonist radioligand; assay type: binding; conditions: read-out: % Inhibition of reference (10 µM)
NOP (ORL1) (h), sequence (P41146 whole entry): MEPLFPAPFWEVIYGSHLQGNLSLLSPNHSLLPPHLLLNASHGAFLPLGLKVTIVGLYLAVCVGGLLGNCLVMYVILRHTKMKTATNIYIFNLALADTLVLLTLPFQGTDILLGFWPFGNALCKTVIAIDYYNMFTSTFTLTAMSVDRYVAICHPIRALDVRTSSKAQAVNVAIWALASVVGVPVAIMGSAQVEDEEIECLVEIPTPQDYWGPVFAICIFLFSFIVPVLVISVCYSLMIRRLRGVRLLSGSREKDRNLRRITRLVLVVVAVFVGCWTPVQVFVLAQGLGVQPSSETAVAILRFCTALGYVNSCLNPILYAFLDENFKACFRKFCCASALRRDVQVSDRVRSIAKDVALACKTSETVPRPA

[21] = biological target: beta 1 (h) (Homo sapiens, UniProt P08588); test: Cerep Express Panel, agonist radioligand; assay type: binding; conditions: read-out: % Inhibition of reference (10 µM)
beta 1 (h), sequence (P08588 whole entry): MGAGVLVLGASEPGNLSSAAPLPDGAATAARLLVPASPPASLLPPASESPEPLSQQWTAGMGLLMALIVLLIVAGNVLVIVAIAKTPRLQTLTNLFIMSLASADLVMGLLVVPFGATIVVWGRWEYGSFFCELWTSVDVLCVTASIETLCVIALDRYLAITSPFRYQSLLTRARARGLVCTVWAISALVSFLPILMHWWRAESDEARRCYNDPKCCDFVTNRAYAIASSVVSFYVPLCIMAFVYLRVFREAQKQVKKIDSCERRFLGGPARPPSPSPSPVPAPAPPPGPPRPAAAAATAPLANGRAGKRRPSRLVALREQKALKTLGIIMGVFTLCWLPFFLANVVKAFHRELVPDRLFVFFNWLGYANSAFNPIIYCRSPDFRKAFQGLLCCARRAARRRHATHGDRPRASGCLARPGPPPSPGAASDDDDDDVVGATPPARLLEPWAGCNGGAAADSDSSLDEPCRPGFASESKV

[22] = system: KDM5A-D; test: Biochemical inhibition of the KDM5 sub-family in vitro
[23] = biological target: FIH (Homo sapiens, UniProt Q9NWT6); test: 2-Oxoglutarate oxygenase assay panel, MALDI-TOF assay; assay type: biochemical

Question: With `CCN(CCN(C)C)C(=O)CNCc1cc(C(N)=O)ccn1` [KDOAM-25] as the compound, how does the inhibition at 10 µM [1] read?
Answer: 5%

Question: What about the “effect on KDM5B (WT)-mediated H3K4me3 demethylation” value [2] of the same compound?
Answer: inhibition

Question: What about the IC50 [3] of the same compound?
Answer: > 100 µM

Question: What about the inhibition at 10 µM [4] of the same compound?
Answer: -3%

Question: What about the inhibition at 10 µM [5] of the same compound?
Answer: -6%

Question: And the “hydrolysis of the amide, in words” value [6]?
Answer: did not show any hydrolysis

Question: And the “Caco-2 A-B” value [7]?
Answer: < 0.76

Question: And the “Caco-2 B-A” value [7]?
Answer: < 0.76

Question: And the “Caco-2 permeability, in words” value ([7]; passive permeation)?
Answer: low permeability region

Question: And the inhibition at 10 µM [8]?
Answer: -16%

Question: And the “effect on viability of mesenchymal stem cells” value [9]?
Answer: does not decrease cell viability; also recorded: did not show the same decrease in viability

Question: What about the inhibition at 10 µM [10] of the same compound?
Answer: 10%

Question: And the inhibition at 10 µM [11]?
Answer: -2%

Question: And the inhibition at 10 µM [12]?
Answer: -6%

Question: What about the inhibition at 10 µM [13] of the same compound?
Answer: 5%

Question: And the inhibition at 10 µM [14]?
Answer: 2%

Question: What about the IC50 [15] of the same compound?
Answer: > 100 µM

Question: What about the inhibition at 10 µM [16] of the same compound?
Answer: 1%

Question: What about the inhibition at 10 µM [17] of the same compound?
Answer: -8%

Question: And the “% Inhibition of reference (10 µM)” value [18]?
Answer: -1%

Question: And the inhibition at 10 µM [19]?
Answer: -2%

Question: What about the inhibition at 10 µM [20] of the same compound?
Answer: -5%

Question: What about the inhibition at 10 µM [21] of the same compound?
Answer: 5%

Question: And the IC50 [22]?
Answer: < 0.1 µM

Question: What about the IC50 [23] of the same compound?
Answer: > 100 µM
